Results: publication PMC4057605 (Journal of immunology (Baltimore, Md. : 1950), 2013)

Legend:
[1] = tested on: HLA-B*44:02 monochain; design: species or system mouse (HLA-B*44:02 monochain transgenic, H-2 class I null); conditions: mouse, in vivo, sc
[2] = tested on: HLA-B*44:02 monochain; design: species or system mouse (HLA-B*44:02 monochain transgenic, H-2 class I null); conditions: mouse, in vivo
[3] = tested on: HLA-A*01:03 monochain; conditions: mouse, in vivo, sc
[4] = tested on: HLA-A*01:03 monochain; conditions: mouse, in vivo
[5] = tested on: HLA-B*27:05 monochain; design: species or system mouse (HLA-B*27:05 monochain transgenic, H-2 class I null); conditions: mouse, in vivo, sc
[6] = tested on: HLA-B*27:05 monochain; design: species or system mouse (HLA-B*27:05 monochain transgenic, H-2 class I null); conditions: mouse, in vivo
[7] = tested on: HLA-B*08:01 monochain; design: species or system mouse (HLA-B*08:01 monochain transgenic, H-2 class I null); conditions: mouse, in vivo, sc
[8] = tested on: HLA-B*08:01 monochain; design: species or system mouse (HLA-B*08:01 monochain transgenic, H-2 class I null); conditions: mouse, in vivo

## AENGWGFYF
[1]
  CD8+ T cell IFN-γ responses after peptide immunization: 60/41/29/12/9 Spots/10^6 Cells
[2]
  CD8+ T cell IFN-γ responses after DNA immunization: 91/63/46/0 Spots/10^6 Cells

## EADPTGHSY
[3]
  CD8+ T cell IFN-γ responses after peptide immunization: 287/212/123/27 Spots/10^6 Cells
[4]
  CD8+ T cell IFN-γ responses after DNA immunization: 118/91/86/38 Spots/10^6 Cells

## EENLLDFVRF
[1]
  CD8+ T cell IFN-γ responses after peptide immunization: 54/28/27/20/0 Spots/10^6 Cells
[2]
  CD8+ T cell IFN-γ responses after DNA immunization: 134/87/0/0 Spots/10^6 Cells

## FEDLRVLSF
[1]
  CD8+ T cell IFN-γ responses after peptide immunization: 167/61/30/17/8 Spots/10^6 Cells
[2]
  CD8+ T cell IFN-γ responses after DNA immunization: 66/44/0/0 Spots/10^6 Cells

## LRGKWQRRYR
[5]
  CD8+ T cell IFN-γ responses after peptide immunization: 113/61/54/23 Spots/10^6 Cells
[6]
  CD8+ T cell IFN-γ responses after DNA immunization: 221/213/189/13 Spots/10^6 Cells

## SRYWAIRTR
[5]
  CD8+ T cell IFN-γ responses after peptide immunization: 567/459/110/0 Spots/10^6 Cells
[6]
  CD8+ T cell IFN-γ responses after DNA immunization: 917/890/411/241 Spots/10^6 Cells

## VSDGGPNLY
[3]
  CD8+ T cell IFN-γ responses after peptide immunization: 201/134/71/59 Spots/10^6 Cells
[4]
  CD8+ T cell IFN-γ responses after DNA immunization: 265/169/105 Spots/10^6 Cells

## WLKIKRDYL
[7]
  CD8+ T cell IFN-γ responses after peptide immunization: 524/103/97/74/64/0 Spots/10^6 Cells
[8]
  CD8+ T cell IFN-γ responses after DNA immunization: 327/46/39/21/21/11 Spots/10^6 Cells
